Reference: ChEMBL document CHEMBL4371101, “Antiproliferative Cardenolides from the Aerial Parts of Pergularia tomentosa” (J Nat Prod, 2019)
The source made the active and inactive calls. The calls are words filed in the database; no cut-off is given here.

Tests used:
Type in all cases: functional, cell-based
PC-3 [1] = test: Antiproliferative activity against human PC3 cells after 72 hrs by MTT assay; conditions: PC-3, 72 h
PC-3 [2] = test: Antiproliferative activity against human PC3 cells assessed as reduction in BrdU incorporation at 1 uM after 24 hrs by Hoechst staining based microscopic assay
Calu-1 = test: Antiproliferative activity against human Calu1 cells after 72 hrs by MTT assay; conditions: Calu-1, 72 h
U-251 = test: Antiproliferative activity against human U251MG cells after 72 hrs by MTT assay; conditions: U-251, 72 h
MCF7 = test: Antiproliferative activity against human MCF7 cells after 72 hrs by MTT assay; conditions: MCF7, 72 h
HeLa = test: Antiproliferative activity against human HeLa cells after 72 hrs by MTT assay

| Structure (SMILES) | IC50 (PC-3 [1]) [µM] | Activity (PC-3 [2]) | IC50 (Calu-1) [µM] | IC50 (U-251) [µM] | IC50 (MCF7) [µM] | IC50 (HeLa) [µM] |
| --- | --- | --- | --- | --- | --- | --- |
| C[C@@H]1C[C@H](O)[C@]2(O)O[C@@H]3C[C@@]4(C=O)[C@@H](CC[C@@H]5[C@@H]4C[C@@H](O)[C@]4(C)[C@@H](C6=CC(=O)OC6)[C@H](O)C[C@]54O)C[C@H]3O[C@@H]2O1 | 0.6 | Active | 4.3 | 1.5 | 7 | 2.3 |
| C[C@]12[C@H](O)C[C@H]3[C@@H](CC[C@H]4C[C@H]5O[C@@H]6O[C@H](CO)C[C@@H](O)[C@]6(O)O[C@@H]5C[C@@]43C=O)[C@@]1(O)CC[C@@H]2C1=CC(=O)OC1 | 8.9 |  | 3.7 | 5.5 | 2 | 0.3 |
| C[C@@H]1C[C@@H](O)[C@]2(O)O[C@@H]3C[C@@]4(C=O)[C@@H](CC[C@@H]5[C@@H]4CC[C@]4(C)[C@@H](C6=CC(=O)OC6)CC[C@]54O)C[C@H]3O[C@@H]2O1 [CALACTIN] | 3.7 |  | 0.5 | 0.9 | 0.2 | 0.2 |
| C[C@@H]1C[C@H](O)[C@]2(O)O[C@@H]3C[C@@]4(C=O)[C@@H](CC[C@@H]5[C@@H]4C[C@@H](O)[C@]4(C)[C@@H](C6=CC(=O)OC6)CC[C@]54O)C[C@H]3O[C@@H]2O1 | 2.1 |  | 0.6 | 1 | 0.2 | 0.6 |
| CC(=O)O[C@@]12CO[C@@H]1C[C@H](O)[C@@]1(C)C(=O)[C@H](O)C3=C(C)[C@@H](OC(=O)[C@H](O)[C@@H](NC(=O)OC(C)(C)C)c4ccccc4)C[C@@](O)([C@@H](OC(=O)c4ccccc4)[C@H]21)C3(C)C [DOCETAXEL ANHYDROUS] | 0.0006 |  | 0.0004 | 0.0007 | 0.0005 | 0.0003 |
| C[C@]12CC[C@H](O)C[C@@H]1CC[C@@H]1[C@@H]2CC[C@]2(C)[C@@H](C3=CC(=O)OC3)CC[C@]12O | 0.3 |  | 8 | 6 | 6 | 3 |
| CC(=O)O[C@@H]1C[C@]2(O)[C@@H]3CC[C@H]4C[C@H]5O[C@@H]6O[C@H](C)C[C@H](O)[C@]6(O)O[C@@H]5C[C@]4(C=O)[C@H]3C[C@@H](O)[C@]2(C)[C@H]1C1=CC(=O)OC1 | 4.2 |  | 0.7 | 6.5 | 0.4 | 0.5 |
| C[C@]12CC[C@H]3[C@@H](CC[C@H]4C[C@@H](O)CC[C@@]43CO)[C@@]1(O)CC[C@@H]2C1=CC(=O)OC1 [COROGLAUCIGENIN] | 0.4 |  | 5.8 | 5 | 7 | 4.2 |
| C[C@]12[C@H](O)C[C@H]3[C@@H](CC[C@H]4C[C@@H](O)CC[C@@]43CO)[C@@]1(O)CC[C@@H]2C1=CC(=O)OC1 | 8.4 |  | 1.3 | 5 | 2.5 | 0.9 |
| C[C@]12CC[C@H](O[C@@H]3O[C@H](CO)[C@@H](O)[C@H](O)[C@H]3O)C[C@@H]1CC[C@@H]1[C@@H]2CC[C@]2(C)[C@@H](C3=CC(=O)OC3)CC[C@]12O [DESGLUCOUZARIN] | 0.3 |  | 6.5 | 8 | 6 | 0.6 |
| C[C@@H]1C[C@@H](O)[C@]2(O)O[C@@H]3C[C@@]4(CO)[C@@H](CC[C@@H]5[C@@H]4C[C@@H](O)[C@]4(C)[C@@H](C6=CC(=O)OC6)CC[C@]54O)C[C@H]3O[C@@H]2O1 | 0.6 |  | 6 | 8 | 5 | 7 |
| C[C@]12CC[C@H]3[C@@H](CC[C@H]4C[C@H]5O[C@@H]6O[C@H](CO)C[C@@H](O)[C@]6(O)O[C@@H]5C[C@@]43CO)[C@@]1(O)CC[C@@H]2C1=CC(=O)OC1 | 3 |  | 0.6 | 1.2 | 0.2 | 0.3 |
| C[C@@H]1C[C@@H](O)[C@]2(O)O[C@@H]3C[C@@]4(C=O)[C@@H](CC[C@@H]5[C@@H]4C[C@@H](O)[C@]4(C)[C@@H](C6=CC(=O)OC6)CC[C@]54O)C[C@H]3O[C@@H]2O1 | 0.3 | Active | 7 | 5.3 | 6 | 2.5 |
| COc1cc(/C=C/C(=O)OC[C@H]2O[C@@H](O[C@H]3CC[C@@]4(C)[C@@H](CC[C@@H]5[C@@H]4CC[C@]4(C)[C@@H](C6=CC(=O)OC6)CC[C@]54O)C3)[C@H](O)[C@@H](O)[C@@H]2O)ccc1O | 0.3 |  | 6 | 5.8 | 0.2 | 4.5 |
| C[C@]12[C@H](O)C[C@H]3[C@@H](CC[C@H]4C[C@H]5O[C@@H]6O[C@H](CO)C[C@@H](O)[C@]6(O)O[C@@H]5C[C@@]43CO)[C@@]1(O)CC[C@@H]2C1=CC(=O)OC1 [GHALAKINOSIDE] | 4.2 |  | 0.7 | 5.2 | 0.6 | 0.9 |
| C[C@]12[C@H](O)C[C@H]3[C@@H](CC[C@H]4C[C@H]5O[C@@H]6O[C@H](CO)C[C@H](O)[C@]6(O)O[C@@H]5C[C@@]43C=O)[C@@]1(O)CC[C@@H]2C1=CC(=O)OC1 | 0.9 | Active | 2 | 6 | 2.8 | 2 |
| C[C@]12CC[C@H]3[C@@H](CC[C@H]4C[C@@H](O[C@@H]5O[C@H](CO)[C@@H](O)[C@H](O)[C@H]5O)CC[C@@]43CO)[C@@]1(O)CC[C@@H]2C1=CC(=O)OC1 | 1 |  | 6 | 6 | 8 | 0.3 |
| C[C@]12CC[C@H]3[C@@H](CC[C@H]4C[C@H]5O[C@@H]6O[C@H](CO)C[C@H](O)[C@]6(O)O[C@@H]5C[C@@]43C=O)[C@@]1(O)CC[C@@H]2C1=CC(=O)OC1 | 3.2 |  | 1.4 | 5 | 1.8 | 0.3 |
| C[C@@H]1C[C@@H](O[C@@H]2O[C@H](CO)[C@@H](O)[C@H](O)[C@H]2O)[C@]2(O)O[C@@H]3C[C@@]4(C=O)[C@@H](CC[C@@H]5[C@@H]4CC[C@]4(C)[C@@H](C6=CC(=O)OC6)CC[C@]54O)C[C@H]3O[C@@H]2O1 | 1 |  | 0.3 | 4.4 | 0.2 | 0.6 |
